Test results published in US20260218197A1, “EXTRACELLULAR VESICLE SECRETION REDUCING AGENT FOR REDUCING EXTRACELLULAR VESICLE SECRETION, AND USE OF THE SAME” (THEORIA SCIENCE INC., priority 2020, published 2026).

Key:
[1] = tested on: colorectal cancer cells HCT116; assay: Amount of secreted EVs by the NTA method; type: cell-based, human; conditions: HCT116, 2.5 μmol/L, 48 hours, serine-deficient medium, compared with NC (DMSO)
Description: (§1) The cultured cancer cells were washed with phosphate buffered saline (PBS), and the medium was replaced with advanced RPMI or advanced DMEM containing the above-described antibiotic-antimycotic agent and 2 mmol/L L-glutamine (Gibco). The adjusted culture solution after the replacement was centrifuged at 2,000×g for 10 minutes to remove the cells, and the supernatant obtained was filtered through a 0.22 μm filter (Millipore). The resulting filtrate was centrifuged at 110,000×g for 70 minutes, whereby pellets containing concentrated EVs were obtained. The pellets were washed with 11 mL of PBS, further ultracentrifuged at 110,000×g for 70 minutes, and collected again.
(§2) The secreted EVs were collected and then suspended in PBS. […] An EV concentration was calculated as particles/cells in the culture solution, whereby a net EV secretion rate was obtained. […]
(§3) In a 6-well plate, 2 mL of the cancer cell suspension was seeded at 1.0×10^5 cells/well and incubated for 24 hours. […] 48 hours after the replacement, total RNA was extracted, and the expression of the gene of interest was measured by qPCR.
(§4) Colorectal cancer cells HCT116 and lung cancer cells A549 were each transfected with miR-891b. […] Then, according to the ExoScreen method described above, the amounts of the secreted EVs were measured by measuring the signal intensities. […]

lung cancer cells A549 = assay: Amount of secreted EVs by the NTA method; type: cell-based, human; conditions: A549, 2.5 μmol/L, 48 hours, serine-deficient medium, compared with NC (DMSO)
Description: as §1, §2, §3, §4

**Q.** With Cc1cc(C)nc(NC(=S)N2CCN(Cc3ccc(C(F)(F)F)cc3)CC2)c1 [NCT-503] as the compound, how does the “amount of EVs in the media (NTA, relative to negative control = 1)” value [1] read?
**A.** smaller

**Q.** And the “amount of EVs in the media (NTA, relative to negative control = 1)” value (lung cancer cells A549)?
**A.** smaller
